Results taken from US11214803B2, “Modulators of YAP1 expression” (Ionis Pharmaceuticals, Inc., priority 2019, dated 2022).
Strand notation (5' to 3'): a small letter for the sugar, then the base; units joined by * are phosphorothioate-linked, units joined directly phosphodiester-linked; [ ] holds rarer units or linkages, { } end groups; capitals alone tell only the bases. k = constrained ethyl (cEt); [5mC] = 5-methylcytosine; d = 2'-deoxy (DNA)

tested on: Yap1 mRNA; assay: Antisense inhibition of human Yap1 in A-431 cells by cEt gapmers, single dose (Example 2, RTS4814); format: cell-based; conditions: Table 18; A-431 cells, 5,000 cells per well, free uptake, 2,000 nM modified oligonucleotide, approx. 48 hours; RTS4814; normalized to RIBOGREEN; Yap1 mRNA as percent of untreated control
How it was run: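 Read-out is Yap1 mRNA as percent of untreated cells, by real-time RT-PCR (probe set RTS4814) normalized to total RNA via RIBOGREEN. Cells were A-431 dosed with 2,000 nM gapmer without transfection for approximately 48 hours.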

Substance | YAP1 (% UTC)
1075108 (antisense k[5mC]*kT*kA*dA*dA*dA*dA*d[5mC]*dA*dT*dT*dG*dT*kG*kG*k[5mC]) [Compound 1075108] | 67
1075140 (antisense k[5mC]*kT*kT*dT*dA*dG*dG*dT*dT*dA*dA*dG*d[5mC]*kA*kA*kT) [Compound 1075140] | 86
1075172 (antisense k[5mC]*kT*kT*dT*dA*d[5mC]*dA*dT*dG*dA*dA*d[5mC]*dT*kG*kA*kT) [Compound 1075172] | 14

same assay, conditions: Table 19; A-431 cells, 5,000 cells per well, free uptake, 2,000 nM modified oligonucleotide, approx. 48 hours; RTS4814; normalized to RIBOGREEN; Yap1 mRNA as percent of untreated control

Substance | YAP1 (% UTC)
1075109 (antisense kA*k[5mC]*kT*dA*dA*dA*dA*dA*d[5mC]*dA*dT*dT*dG*kT*kG*kG) [Compound 1075109] | 71
1075141 (antisense kT*kA*kT*dA*d[5mC]*dG*dA*dG*dA*dA*dG*dT*dT*kG*kA*kA) [Compound 1075141] | 54
1075173 (antisense k[5mC]*kT*kT*dT*dA*dG*dG*dG*d[5mC]*dA*dA*d[5mC]*dT*kG*kT*kA) [Compound 1075173] | 22

same assay, conditions: Table 20; Yap1 mRNA, percent of untreated control; 3-10-3 cEt gapmers targeting SEQ ID NO.: 1 and 2

Substance | YAP1 (% UTC)
1075078 (antisense k[5mC]*kA*kA*d[5mC]*dT*dA*dT*dA*d[5mC]*dG*dG*dT*d[5mC]*k[5mC]*kA*kT) [Compound 1075078] | 3
1075110 (antisense kG*kA*k[5mC]*dT*dA*dA*dA*dA*dA*d[5mC]*dA*dT*dT*kG*kT*kG) [Compound 1075110] | 120
1075142 (antisense kG*kA*kT*dA*dT*dA*d[5mC]*dG*dA*dG*dA*dA*dG*kT*kT*kG) [Compound 1075142] | 16
1075174 (antisense k[5mC]*k[5mC]*kT*dG*dA*dA*dA*dA*dG*dA*d[5mC]*dA*dG*kT*k[5mC]*k[5mC]) [Compound 1075174] | 74

same assay, conditions: Table 21; Yap1 mRNA, percent of untreated control; 3-10-3 cEt gapmers targeting SEQ ID NO.: 1 and 2

Substance | YAP1 (% UTC)
1075079 (antisense k[5mC]*kA*k[5mC]*d[5mC]*dA*dA*dA*dA*dG*d[5mC]*dT*dT*dA*kG*kT*kT) [Compound 1075079] | 40
1075111 (antisense kT*kA*kG*dG*dA*dA*dT*dA*dT*dG*dG*dG*dT*kA*kG*kT) [Compound 1075111] | 5
1075143 (antisense k[5mC]*k[5mC]*kT*dT*dA*dT*dT*dA*dG*dT*d[5mC]*dA*dG*kT*kT*k[5mC]) [Compound 1075143] | 2
1075175 (antisense kA*k[5mC]*kT*dG*dA*dA*dA*dG*dA*dT*dT*d[5mC]*d[5mC]*kA*kT*kG) [Compound 1075175] | 99

same assay, conditions: Table 22; Yap1 mRNA as percent of untreated control; 3-10-3 cEt gapmers; single dose

Substance | YAP1 (% UTC)
1075080 (antisense kA*kT*kT*dA*d[5mC]*dA*dA*dA*dG*dA*d[5mC]*dA*dG*k[5mC]*k[5mC]*k[5mC]) [Compound 1075080] | 18
1075112 (antisense kA*kT*kA*dT*dA*dG*dG*dA*dA*dT*dA*dT*dG*kG*kG*kT) [Compound 1075112] | 6
1075144 (antisense kA*k[5mC]*k[5mC]*d[5mC]*dT*dA*dT*dA*dT*d[5mC]*d[5mC]*dT*dA*kT*kA*kT) [Compound 1075144] | 82
1075176 (antisense kA*kA*kT*dT*dA*d[5mC]*d[5mC]*d[5mC]*dG*dG*dG*dA*dA*k[5mC]*kT*kA) [Compound 1075176] | 70

same assay, conditions: Table 23; Yap1 mRNA as percent of untreated control; 3-10-3 cEt gapmers; single dose

Substance | YAP1 (% UTC)
1075081 (antisense kG*kA*kT*dT*dA*d[5mC]*dA*dA*dA*dG*dA*d[5mC]*dA*kG*k[5mC]*k[5mC]) [Compound 1075081] | 7
1075113 (antisense kT*kA*kT*dA*dA*dA*dT*dA*d[5mC]*d[5mC]*dA*dG*dG*kT*kA*k[5mC]) [Compound 1075113] | 67
1075145 (antisense kT*k[5mC]*k[5mC]*d[5mC]*dA*dA*dA*dA*dG*dG*dA*dG*dT*kA*kG*k[5mC]) [Compound 1075145] | 58
1075177 (antisense kG*kA*kA*dA*dT*dT*dA*d[5mC]*d[5mC]*d[5mC]*dG*dG*dG*kA*kA*k[5mC]) [Compound 1075177] | 27

same assay, conditions: Table 24; Yap1 mRNA as percent of untreated control; 3-10-3 cEt gapmers targeting SEQ ID NO.: 1, and 2

Substance | YAP1 (% UTC)
1075082 (antisense k[5mC]*kT*kT*dT*dA*dG*dA*dT*dA*d[5mC]*dA*dA*dG*kA*kG*kG) [Compound 1075082] | 80
1075114 (antisense kG*kT*kA*dT*dA*dA*dA*dT*dA*d[5mC]*d[5mC]*dA*dG*kG*kT*kA) [Compound 1075114] | 26
1075146 (antisense kG*kT*kA*dT*dT*dA*dA*dG*dG*dG*dA*dT*dT*kT*kT*k[5mC]) [Compound 1075146] | 8
1075178 (antisense k[5mC]*kT*kG*dG*dA*dA*dG*dA*dA*dA*dT*dT*dA*k[5mC]*k[5mC]*k[5mC]) [Compound 1075178] | 47

same assay, conditions: Table 25; Yap1 mRNA as percent of untreated control; 3-10-3 cEt gapmers targeting SEQ ID NO.: 1, and 2

Substance | YAP1 (% UTC)
1075083 (antisense k[5mC]*kA*kA*d[5mC]*dA*dA*d[5mC]*dA*d[5mC]*dT*d[5mC]*d[5mC]*dT*k[5mC]*kT*kT) [Compound 1075083] | 54
1075115 (antisense kG*kT*kA*dT*dA*dG*d[5mC]*d[5mC]*dT*dT*dA*dT*dT*k[5mC]*kT*kT) [Compound 1075115] | 6
1075147 (antisense kT*kA*kT*dA*dA*dA*d[5mC]*d[5mC]*dT*dT*dA*d[5mC]*dA*kG*kT*kA) [Compound 1075147] | 57

same assay, conditions: Table 32; Yap1 mRNA, percent of untreated control; 3-10-3 cEt gapmers targeting SEQ ID NO.: 1, and 2

Substance | YAP1 (% UTC)
1075090 (kG*k[5mC]*kT*dT*dA*dT*dA*dA*dT*d[5mC]*dT*dT*dT*k[5mC]*kA*kG; antisense) [compound 1075090] | 9
1075122 (kG*kA*kA*dA*dA*dT*dT*dA*dG*d[5mC]*d[5mC]*dT*dA*k[5mC]*k[5mC]*kA; antisense) [compound 1075122] | 16
1075154 (k[5mC]*kA*kT*dT*dA*dT*dA*dA*dT*dG*dG*dG*dA*kG*kG*kA; antisense) [compound 1075154] | 13

same assay, conditions: Table 33; Yap1 mRNA, percent of untreated control; 3-10-3 cEt gapmers targeting SEQ ID NO.: 1, and 2

Substance | YAP1 (% UTC)
1075091 (kA*kA*kA*d[5mC]*dA*dA*d[5mC]*dG*dA*dA*dT*dG*dA*kT*kT*kG; antisense) [compound 1075091] | 65
1075123 (k[5mC]*kT*kT*dT*dA*dG*dG*dA*dA*dA*dG*dG*dG*kT*kA*kT; antisense) [compound 1075123] | 21

same assay, conditions: Yap1 mRNA as percent of untreated control; A-431 cells; 3-10-3 cEt gapmers targeting SEQ ID NO.: 1, and 2; Table 30

Substance | YAP1 (% UTC)
1075120 (kA*kA*kT*dT*dA*dG*d[5mC]*d[5mC]*dT*dA*d[5mC]*d[5mC]*dA*k[5mC]*k[5mC]*kT; antisense) [compound 1075120] | 42
1075152 (kT*kA*kT*dA*dA*dT*dG*dG*dG*dA*dG*dG*dA*kT*kT*kA; antisense) [compound 1075152] | 99

same assay, conditions: Yap1 mRNA as percent of untreated control; A-431 cells; 3-10-3 cEt gapmers targeting SEQ ID NO.: 1, and 2; Table 31

Substance | YAP1 (% UTC)
1075121 (kA*kA*kA*dA*dT*dT*dA*dG*d[5mC]*d[5mC]*dT*dA*d[5mC]*k[5mC]*kA*k[5mC]; antisense) [compound 1075121] | 40
1075153 (kA*kT*kT*dA*dT*dA*dA*dT*dG*dG*dG*dA*dG*kG*kA*kT; antisense) [compound 1075153] | 38
